Results: US10385085B2, “Crystal forms of sialic acid or salt or solvate thereof” (Ultragenyx Pharmaceutical Inc., priority 2015, dated 2019)
“And” between values parts separate entries of the source, which are not always exact repeats. Equal values may be shown once.

Assays:
Type in all cases: physicochemical
[1] = Thermogravimetric/Differential Thermal Analysis (TG/DTA)
Method: Approximately, 10 mg of material was weighed into an open aluminium pan and loaded into a simultaneous thermogravimetric/differential thermal analyser (TG/DTA) and held at room temperature. The sample was then heated at a rate of 10° C./min from 25° C. to 300° C. during which time the change in sample weight was recorded along with any differential thermal events (DTA). Nitrogen was used as the purge gas, at a flow rate of 300 cm^3/min.

[2] = Differential Scanning Calorimetry (DSC)
Method: Approximately, 5 mg of material was weighed into an aluminium DSC pan and sealed non-hermetically with a pierced aluminium lid. The sample pan was then loaded into a Seiko DSC6200 (equipped with a cooler) cooled and held at 25° C. Once a stable heat-flow response was obtained, the sample and reference were heated to 210° C. at a scan rate of 10° C./min and the resulting heat flow response monitored. Nitrogen was used as the purge gas, at a flow rate of 50 cm^3/min.

[3] = Gravimetric Vapour Sorption (GVS) with post-GVS XRPD; settings: for Polymorphic form after GVS (XRPD): material reclaimed after GVS run; for DVS, RH at which the form goes to form 1: relative humidity
Method: Approximately 10-20 mg of sample was placed into a mesh vapour sorption balance pan and loaded into an IGASorp Moisture Sorption Analyser balance by Hiden Analytical. The sample was subjected to a ramping profile from 40-90% relative humidity (RH) at 10% increments, maintaining the sample at each step until a stable weight had been achieved (98% step completion). After completion of the sorption cycle, the sample was dried using the same procedure to 0% RH, and finally taken back to the starting point of 40% RH. The weight change during the sorption/desorption cycles were plotted, allowing for the hygroscopic nature of the sample to be determined.

[4] = PLM (morphology) of the solid forms; settings: for PLM (morphology): particle shape
[5] = 7 day stress stability, physical form by XRPD
Method: XRPD analysis was carried out on a Panalytical X′pert Pro, scanning the samples between 3 and 35° […]. The material was gently ground and loaded onto a multi well plate with Kapton or mylar polymer film to support the sample. The multi well plate was then loaded into a Panalytical diffractometer running in transmission mode and analysed, using the following experimental conditions.
(§1) The selected Forms (5, 3 and 2) were fully characterized by PLM, XRPD, ^1H NMR and IR spectroscopy, DSC, TG/DTA, GVS (with post-GVS XRPD), Karl Fischer titration for water content and HPLC analysis for purity. All of these forms with the addition of Form 1 were also placed under a stress-stability test, at three different conditions for one week (ambient conditions, 40° C. and 75% relative humidity, 80° C.). In addition to this, an approximate solubility test was conducted on the different solid forms using a solvent addition method.
(§2) All four Forms (1, 2, 3 and 5) were placed under 7 day stress stability testing. This was carried out by placing the four forms under three different conditions for one week. Their physical stability was then analyzed by comparing the diffractograms and the chemical stability was checked by HPLC.

HPLC-UV chemical purity = settings: summary Table 13
Method: The chemical purity was measured on an Agilent HP1100 HPLC system fitted with an Agilent variable wavelength UV detector. Samples were prepared by dissolving in diluent at a concentration of 1 mg/mL before being analysed under the following HPLC conditions: […]

[6] = 7 day stress stability, chemical stability by HPLC; settings: for Chemical stability: 1 week stress test, conditions studied; for Sialic acid Area % (HPLC): two injections; for HPLC purity of recovered samples: after 1 week, all three conditions (ambient; 40° C./75% RH; 80° C.)
Method: The chemical purity was measured on an Agilent HP1100 HPLC system fitted with an Agilent variable wavelength UV detector. Samples were prepared by dissolving in diluent at a concentration of 1 mg/mL before being analysed under the following HPLC conditions:
as §1, §2

[7] = Approximate aqueous solubility of the solid forms (solvent addition method); settings: for Approximate solubility: aqueous; for Aqueous Solubility, Solubility in g/L: deionized water, approximate, solvent addition
Method: as §1
Approximately 50 mg of each form (1, 2, 3 and 5) was weighed into a 2 ml vial. 20 μl aliquots of deionized water was added to each vial until complete dissolution of the solid was observed. The volume was noted down and the approximate water solubility calculated.

[8] = 1 week under ambient conditions
[9] = after 1 week under 40° C., 75% RH
[10] = after 1 week under ambient conditions
[11] = stability under ambient conditions

SMILES | TGA Decomposition temperature [1] | DSC (thermal events) Endotherm [2] | DVS (hygroscopicity) [3] | XRPD post DVS [3] | Polymorphic form after GVS (XRPD) [3] | DVS, RH at which the form goes to form 1 [3] | PLM (morphology), particle size [4] [μm] | PLM (morphology) [4] | Physical form (XRPD) after stress ([5]; 1 week at 80° C.) | Physical form (XRPD) after stress [5, 8] | Stability - XRPD post Stability ([5]; at 80° C.) | Stability - XRPD post Stability ([5]; at RT) | HPLC (purity) (HPLC-UV chemical purity) | Chemical stability [6] | Sialic acid Area % (HPLC) [6, 9] | Sialic acid Area % (HPLC) ([6]; after 1 week under 80° C.) | Sialic acid Area % (HPLC) [6, 10] | HPLC purity of recovered samples [6] | Approximate solubility [7] [mg/mL] | Aqueous Solubility, Solubility in g/L [7] [g/L] | further results
CC(=O)N[C@H]1[C@H]([C@H](O)[C@H](O)CO)OC(O)(C(=O)O)C[C@@H]1O (some centres unmarked) [Form 3, N-acetylneuraminic acid] | 176.2° ° C. | 107° ° C. and 181.0° ° C. | Goes to form 1 | change | converts to Form 1 | RH >50% | <30 | Small needles | to Form 2 | converts to Form 2 | Form 2 at 80 °C | Form 2 at RT | 99.8% | moderate chemical stability | 98.011% and 98.031% | 99.526% and 99.523% | 99.684% and 99.715% | higher than 98% | 188.2 | 188.2 | TGA (weight loss) [1]: 15.3%; TGA temperature of the weight loss [1]: (80° C.); GVS weight loss (desolvation) ([3]; on increase of humidity): 16%; Stability as a physical form (XRPD) ([5]; 1 week stress test, overall): not stable
CC(=O)N[C@H]1[C@H]([C@H](O)[C@H](O)CO)OC(O)(C(=O)O)C[C@@H]1O (some centres unmarked) [Form 2, N-acetylneuraminic acid] | at 178.5 °C | 181.0° ° C. | Goes to form 1 | change | converted to Form 1 | RH >50% | <30 | Small needles | stable | stable | Form 2 at 80 °C | Form 1 + 2 at RT | 99.70% and 99.80% | good chemical stability | 99.405% and 99.360% | 99.348% and 99.372% | 99.561% and 99.605% | higher than 99.4% | 105.0 | 105 | Hygroscopicity (GVS) [3]: slightly hygroscopic; Physical form (XRPD) after stress ([5]; 1 week at 40° C./75% RH): converts to Form 1; Acetic acid Area % (HPLC) ([6]; after 1 week under 80° C.): 0.075% and 0.072%; Sodium Pyruvate Area % (HPLC) ([6]; after 1 week under 80° C.): 0.076% and 0.077%; Area % Acetic acid (HPLC) ([6]; stability under 40° C., 75% RH): 0.000%; Area % N-acetyl-D-glucosamine (HPLC) ([6]; stability under 40° C., 75% RH): 0.000%; Area % N-acetyl-D-mannosamine (HPLC) ([6]; stability under 40° C., 75% RH): 0.000%; Area % Sodium Pyruvate (HPLC) ([6]; stability under 40° C., 75% RH): 0.000%; Area % Acetic acid (HPLC) ([6]; stability under 80° C.): 0.000%; Area % N-acetyl-D-glucosamine (HPLC) ([6]; stability under 80° C.): 0.000%; Area % N-acetyl-D-mannosamine (HPLC) ([6]; stability under 80° C.): 0.000%; Area % Sialic acid (HPLC) ([6]; stability under 80° C.): 99.601% and 99.566%; Area % Sodium Pyruvate (HPLC) ([6]; stability under 80° C.): 0.000% and 0.044%; Area % Acetic acid (HPLC) [6, 11]: 0.000%; Area % N-acetyl-D-glucosamine (HPLC) [6, 11]: 0.000%; Area % N-acetyl-D-mannosamine (HPLC) [6, 11]: 0.000%; Area % Sodium Pyruvate (HPLC) [6, 11]: 0.000%
CC(=O)N[C@H]1[C@H]([C@H](O)[C@H](O)CO)OC(O)(C(=O)O)C[C@@H]1O (some centres unmarked) [An embodiment of Form 2, N-acetylneuraminic acid] | – | – | – | – | transformed to Form 1 | – | – | – | stable | mixture of Forms 1 and 2 | – | – | – | good | – | – | – | – | – | – | Hygroscopicity (GVS) [3]: slightly hygroscopic; GVS weight loss on sorption ([3]; RH>50%): ca. 1.5%; Physical form (XRPD) after stress ([5]; 1 week at 40° C./75% RH): converts to Form 1
